Measured values reported in ChEMBL document CHEMBL5518157, “Strategies of targeting CYP51 for IFIs therapy: Emerging prospects, opportunities and challenges” (Eur J Med Chem, 2023).
In brackets after ≈: the same amount, converted by molar mass. Values belong to the compound of their own block, whether it stands above or below them.

Tests used:
Candida albicans [1] = test: Antifungal activity against Candida albicans SC5314 assessed as reduction in microbial growth incubated for 24 hrs by serial dilution method; format: functional
Trichophyton rubrum [2] = test: Antifungal activity against Trichophyton rubrum 0501124 assessed as inhibition of fungal growth incubated for 24 hrs by broth microdilution method; format: functional
Candida albicans [3] = test: Antifungal activity against Candida albicans assessed as reduction in microbial growth; format: functional
Trichophyton rubrum [4] = test: Antifungal activity against Trichophyton rubrum assessed as fungal growth inhibition incubated for 5 to 7 days by NCCLS based assay; format: functional; details: time 5-7 day
Nannizzia gypsea = test: Antifungal activity against Microsporum gypseum assessed as fungal growth inhibition incubated for 48 hrs by microplate reader assay; format: functional
Candida albicans [5] = test: Antifungal activity against Candida albicans ATCC 76615 assessed as fungal growth inhibition incubated for 5 to 7 days by NCCLS based assay; format: functional; details: time 5-7 day
Candida albicans [6] = test: Antifungal activity against Candida albicans ATCC 10231 assessed as growth inhibition measured for 24 hrs by CLSI based method; format: functional
Pichia kudriavzevii = test: Antifungal activity against Candida krusei ATCC 6258 assessed as reduction in fungal growth by NCCLS method; format: functional
Candida albicans [7] = test: Antifungal activity against Candida albicans ATCC 10231 assessed as growth inhibition measured after 48 hrs by CLSI based method; format: functional, organism-based; details: ATCC 10231, 48 h
Cytochrome P450 3A4 = Cytochrome P450 3A4 (Homo sapiens, UniProt P08684); test: Inhibition of CYP3A4 (unknown origin); format: ADME
[Candida] auris = Antifungal activity against Candida auris CBS 12373 assessed as reduction in microbial growth incubated for 24 hrs by serial dilution method; format: functional; details: Candidozyma auris
Candida albicans [8] = test: Antifungal activity against Candida albicans SC5314 assessed as reduction in fungal growth incubated for 24 hrs by serial dilution method; format: functional
Candida albicans [9] = test: Antifungal activity against Candida albicans ATCC 96901; format: functional
Candida albicans [10] = test: Antifungal activity against Candida albicans assessed as reduction in fungal growth incubated for 24 hrs by broth microdilution method; format: functional, organism-based
Candida albicans [11] = test: Antimicrobial activity against Candida albicans 90028 assessed as microbial growth inhibition by broth microdilution method; format: functional
Nakaseomyces glabratus = test: Antifungal activity against Candida glabrata ATCC 15126 assessed as reduction in fungal growth incubated for 24 hrs by CLSI based microdilution analysis; format: functional
Aspergillus fumigatus = test: Antifungal activity against Aspergillus fumigatus CGMCC3 7795 assessed as reduction in fungal growth incubated for 48 hrs by CLSI based microdilution analysis; format: functional

Chain of Cytochrome P450 3A4 (P08684 whole entry): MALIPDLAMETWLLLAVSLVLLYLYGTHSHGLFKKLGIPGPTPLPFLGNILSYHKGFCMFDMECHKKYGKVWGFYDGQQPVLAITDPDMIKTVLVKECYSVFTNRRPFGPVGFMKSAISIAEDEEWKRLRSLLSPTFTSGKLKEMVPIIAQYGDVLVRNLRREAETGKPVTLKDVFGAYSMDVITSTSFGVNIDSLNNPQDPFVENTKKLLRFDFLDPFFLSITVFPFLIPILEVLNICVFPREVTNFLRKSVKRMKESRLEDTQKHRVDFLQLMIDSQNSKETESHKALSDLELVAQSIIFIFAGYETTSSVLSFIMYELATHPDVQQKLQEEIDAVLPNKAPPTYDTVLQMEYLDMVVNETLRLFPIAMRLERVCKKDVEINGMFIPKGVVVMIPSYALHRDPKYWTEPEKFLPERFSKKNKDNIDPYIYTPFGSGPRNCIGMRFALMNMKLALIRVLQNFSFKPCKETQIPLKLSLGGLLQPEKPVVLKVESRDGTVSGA

SMILES: O=c1n(-c2ccc(C(F)(F)C(O)(Cn3cnnn3)c3ccc(F)cc3F)nc2)cnn1C1CCCC1 (centres undefined)
- MIC80 (Trichophyton rubrum [4]): 0.125 µg/mL (≈ 0.248 µM)

SMILES: O=c1n(-c2ccc(C(F)(F)C(O)(Cn3cnnn3)c3ccc(F)cc3F)nc2)cnn1C1CCCCC1 (centres undefined)
- MIC50 (Trichophyton rubrum [2]): 2 µg/mL (≈ 3.86 µM)
- MIC80 (Trichophyton rubrum [4]): 2 µg/mL (≈ 3.86 µM)
- MIC80 (Nannizzia gypsea): 4 µg/mL (≈ 7.71 µM)

SMILES: Clc1ccc(C(Cn2ccnc2)[Se]Cc2ccccc2Cl)c(Cl)c1 (centres undefined)
- MIC (Candida albicans [6]): 0.01 µg/mL (≈ 0.0225 µM)

SMILES: Fc1ccc([Se]C(Cn2ccnc2)c2ccc(F)cc2F)cc1 (centres undefined)
- MIC (Candida albicans [6]): 0.02 µg/mL (≈ 0.0525 µM)

SMILES: Cc1ccccc1[Se]C(Cn1ccnc1)c1ccc(Cl)cc1 (centres undefined)
- MIC (Candida albicans [6]): 0.03 µg/mL (≈ 0.0798 µM)

SMILES: Clc1ccc(C(Cn2ccnc2)[Se]C(Cn2ccnc2)c2ccc(Cl)cc2)cc1 (centres undefined)
- MIC (Candida albicans [3]): 2 µg/mL

SMILES: Cc1cccc(C)c1[Se]C(Cn1ccnc1)c1ccc(Cl)cc1 (centres undefined)
- MIC (Candida albicans [3]): 0.03 µg/mL

SMILES: Cc1cccc(C)c1[Se]C(Cn1ccnc1)c1ccc(F)cc1 (centres undefined)
- MIC (Candida albicans [6]): 0.03 µg/mL (≈ 0.0804 µM)

SMILES: CCC/C=C/C=C/C=C(\C)[C@@H]1OC[C@H](C)[C@H](OC)[C@H]1OC(=O)CN
- IC50 (Candida albicans [10]): 470 nM

SMILES: CC(C)[C@@H](C)/C=C/[C@@H](C)[C@H]1CC[C@H]2C3=CC=C4C[C@@H](O)CC[C@]4(C)[C@H]3CC[C@]12C [ERGOSTEROL]
- MIC90 (Candida albicans [11]): 512 µg/mL (≈ 1290 µM)

SMILES: O=C(O)c1cc(O)c(O)c(O)c1 [GALLIC ACID]
- MIC (Nakaseomyces glabratus): 12.5 µg/mL (≈ 73.5 µM)

More lines, main results first:

- MIC50 (Candida albicans [1]): ≤ 1 ng/mL
SMILES: O[C@@](Cn1cnnn1)(c1ccc(F)cc1F)C(F)(F)c1ccc(-c2ccc(OC(F)(F)F)cc2)cn1

- MIC50 (Trichophyton rubrum [2]): > 64 µg/mL
SMILES: OC(Cn1cnnn1)(c1ccc(F)cc1F)C(F)(F)c1ccc(C#Cc2ccc(F)cc2)cn1 (centres undefined)

- MIC50 (Trichophyton rubrum [2]): 8 µg/mL (≈ 13.7 µM)
- MIC50 (Candida albicans [3]): 0.031 µg/mL
SMILES: N#Cc1ccc(COc2ccc(C#Cc3ccc(C(F)(F)C(O)(Cn4cnnn4)c4ccc(F)cc4F)nc3)cc2)cc1 (centres undefined)

- MIC50 (Trichophyton rubrum [2]): 2 µg/mL (≈ 3.95 µM)
- MIC80 (Trichophyton rubrum [4]): 2 µg/mL (≈ 3.95 µM)
- MIC80 (Nannizzia gypsea): 4 µg/mL (≈ 7.9 µM)
SMILES: CC(C)(C)Cn1ncn(-c2ccc(C(F)(F)C(O)(Cn3cnnn3)c3ccc(F)cc3F)nc2)c1=O (centres undefined)

- MIC (Candida albicans [5]): 0.125 µg/mL (≈ 0.374 µM)
SMILES: C[C@H](NC(=O)c1ccc2ccccc2n1)C(=O)NCc1ccncc1

- MIC (Candida albicans [5]): 0.125 µg/mL (≈ 0.39 µM)
SMILES: O=C(CNC(=O)c1ccc2ccccc2n1)NCc1ccncc1

- MIC80 (Pichia kudriavzevii): 3 ng/mL (≈ 0.00678 µM)
SMILES: CC(C)Cc1ccc([C@H](C)C(=O)NC[C@](O)(Cn2cncn2)c2ccc(F)cc2F)cc1

- MIC80 (Pichia kudriavzevii): 7 ng/mL (≈ 0.0146 µM)
SMILES: C[C@H](C(=O)NC[C@](O)(Cn1cncn1)c1ccc(F)cc1F)c1ccc(-c2ccccc2)c(F)c1

- IC50 (Cytochrome P450 3A4): 30.5 µM
- MIC50 ([Candida] auris): 0.8 µg/mL
- MIC50 (Candida albicans [8]): 0.5 µg/mL (≈ 1.53 µM)
SMILES: CC(C)(C)c1ccc(-c2nnc(Nc3ccc(Cl)cc3)o2)cc1
- IC50 (Candida albicans [7]): 0.9 µg/mL (≈ 2.75 µM)

- MIC (Candida albicans [9]): 0.25 µg/mL (≈ 0.392 µM)
SMILES: Clc1ccc(C(Cn2ccnc2)[Se][Se]C(Cn2ccnc2)c2ccc(Cl)cc2Cl)c(Cl)c1 (centres undefined)

- MIC (Candida albicans [5]): 0.25 µg/mL (≈ 0.627 µM)
SMILES: O=C(N[C@@H](Cn1ccnc1)C(=O)NCc1ccccc1)c1ccc2ccccc2c1

- MIC (Candida albicans [5]): 0.125 µg/mL (≈ 0.366 µM)
SMILES: C[C@H](NC(=O)c1ccc2c(c1)OCCO2)C(=O)NCc1ccncc1

- MIC (Candida albicans [5]): 0.125 µg/mL (≈ 0.338 µM)
SMILES: CC(C)[C@H](NC(=O)c1ccc2c(c1)OCCO2)C(=O)NCc1cccnc1

- MIC50 (Candida albicans [3]): 0.007 µg/mL
- MIC50 (Aspergillus fumigatus): 0.25 µg/mL (≈ 0.428 µM)
SMILES: N#Cc1ccc(COc2ccc(C#Cc3ccc(C(F)(F)[C@](O)(Cn4cnnn4)c4ccc(F)cc4F)nc3)cc2)cc1 [VT-1598]
